From ChEMBL document CHEMBL5505979, “Novel aminothiazoximone-corbelled ethoxycarbonylpyrimidones with antibiofilm activity to conquer Gram-negative bacteria through potential multitargeting effects” (Eur J Med Chem, 2024)
≈ marks a conversion by molar mass, not a printed value. Calls of active or inactive are those of the source. The calls are words filed in the database; no cut-off is given here.

Assays:
Staphylococcus aureus = assay: Anti-bacterial activity against Staphylococcus aureus ATCC 6538 assessed as inhibition of bacterial growth; type: functional
Escherichia coli [1] = assay: Anti-bacterial activity against Escherichia coli ATCC 25922 assessed as inhibition of bacterial growth; type: functional
[2] = Hemolysis in human RBC assessed as hemolysis rate at 128 times of MIC concentration for 6 hrs; type: toxicity, cell-based, Erythrocyte; conditions: red blood cells, read-out: Activity
[3] = Cytotoxicity against human L02 cells assessed as cell viability at effective concentration measured after 24 hrs; type: toxicity, cell-based; conditions: read-out: Activity
Acinetobacter baumannii [4] = assay: Antibiofilm activity against Acinetobacter baumannii assessed as decrease in biofilm formation at MIC concentration relative to control; type: functional; parameters: scale not given: the % may be the effect or the level left
Escherichia coli [5] = assay: Antibiofilm activity against Escherichia coli ATCC 25922 assessed as clearance rate of mature biofilm at MIC concentration relative to control; type: functional
Acinetobacter baumannii [6] = assay: Reduction of biofilm virulent factors in Acinetobacter baumannii assessed as decrease in extracellular polymeric substances (EPS) by measuring optical density at 490 nm at 2 times of MIC concentration by congo red binding assay (reference value: 0.188 to 0.192); type: functional
Escherichia coli [7] = assay: Reduction of biofilm virulent factors in Escherichia coli ATCC 25922 assessed as decrease in extracellular polymeric substances (EPS) by measuring optical density at 490 nm at 4 times of MIC concentration by congo red binding assay (reference value: 0.028 to 0.031); type: functional
Escherichia coli [8] = assay: Reduction of biofilm virulent factors in Escherichia coli ATCC 25922 assessed as decrease in extracellular polymeric substances (EPS) at 1/2 times of MIC concentration by congo red binding assay relative to control; type: functional; parameters: scale not given: the % may be the effect or the level left
Acinetobacter baumannii [9] = assay: Anti-bacterial activity against Acinetobacter baumannii assessed as inhibition of bacterial growth measured after 20 passages at sub-MIC concentration by multiple resistance study; type: functional, organism-based
Acinetobacter baumannii [10] = assay: Anti-bacterial activity against Acinetobacter baumannii assessed as fractional inhibitory concentration measured upto 9 hrs in presence of norfloxacin; type: functional
Acinetobacter baumannii [11] = assay: Anti-bacterial activity against Acinetobacter baumannii assessed as growth inhibition by measuring optical density measured at 4 time of MIC in presence of 1/8 times of MIC of norfloxacin by Checkerboard assay (reference value: 0.152); type: functional
Acinetobacter baumannii [12] = assay: Anti-bacterial activity against Acinetobacter baumannii assessed as growth inhibition by measuring optical density measured at 4 time of MIC in presence of 1/4 times of MIC of norfloxacin by Checkerboard assay (reference value: 0.152); type: functional
Acinetobacter baumannii [13] = assay: Anti-bacterial activity against Acinetobacter baumannii assessed as growth inhibition by measuring optical density measured at 2 time of MIC in presence of 1/8 times of MIC of norfloxacin by Checkerboard assay (reference value: 0.155); type: functional
Acinetobacter baumannii [14] = assay: Anti-bacterial activity against Acinetobacter baumannii assessed as growth inhibition by measuring optical density measured at 2 time of MIC in presence of 1/4 times of MIC of norfloxacin by Checkerboard assay (reference value: 0.155); type: functional
Acinetobacter baumannii [15] = assay: Anti-bacterial activity against Acinetobacter baumannii assessed as growth inhibition by measuring optical density measured at 2 time of MIC in presence of 1/2 times of MIC of norfloxacin by Checkerboard assay (reference value: 0.155); type: functional
Acinetobacter baumannii [16] = assay: Anti-bacterial activity against Acinetobacter baumannii assessed as growth inhibition by measuring optical density measured at 2 time of MIC in presence of 2 times of MIC of norfloxacin by Checkerboard assay (reference value: 0.155); type: functional
Acinetobacter baumannii [17] = assay: Anti-bacterial activity against Acinetobacter baumannii assessed as growth inhibition by measuring optical density measured at 1 time of MIC in presence of 1/8 times of MIC of norfloxacin by Checkerboard assay (reference value: 0.157); type: functional
Acinetobacter baumannii [18] = assay: Anti-bacterial activity against Acinetobacter baumannii assessed as growth inhibition by measuring optical density measured at 1 time of MIC in presence of 1/2 times of MIC of norfloxacin by Checkerboard assay (reference value: 0.157); type: functional
Acinetobacter baumannii [19] = assay: Anti-bacterial activity against Acinetobacter baumannii assessed as growth inhibition by measuring optical density measured at 1 time of MIC in presence of 2 times of MIC of norfloxacin by Checkerboard assay (reference value: 0.157); type: functional
Acinetobacter baumannii [20] = assay: Anti-bacterial activity against Acinetobacter baumannii assessed as growth inhibition by measuring optical density measured at 1/4 time of MIC in presence of 2 times of MIC of norfloxacin by Checkerboard assay (reference value: 0.152); type: functional
Escherichia coli [21] = assay: Anti-bacterial activity against Escherichia coli ATCC 25922 assessed as growth inhibition by measuring optical density measured at 4 time of MIC in presence of 2 times of MIC of norfloxacin by Checkerboard assay (reference value: 0.125); type: functional
Escherichia coli [22] = assay: Anti-bacterial activity against Escherichia coli ATCC 25922 assessed as growth inhibition by measuring optical density measured at 1 time of MIC in presence of 1 times of MIC of norfloxacin by Checkerboard assay (reference value: 0.125); type: functional
Escherichia coli [23] = assay: Anti-bacterial activity against Escherichia coli ATCC 25922 assessed as growth inhibition by measuring optical density measured at 1/2 time of MIC in presence of 1/4 times of MIC of norfloxacin by Checkerboard assay (reference value: 0.124); type: functional
Escherichia coli [24] = assay: Anti-bacterial activity against Escherichia coli ATCC 25922 assessed as growth inhibition by measuring optical density measured at 1/4 time of MIC in presence of 1/4 times of MIC of norfloxacin by Checkerboard assay (reference value: 0.128); type: functional
Escherichia coli [25] = assay: Anti-bacterial activity against Escherichia coli ATCC 25922 assessed as growth inhibition by measuring optical density measured at 1/4 time of MIC in presence of 1 times of MIC of norfloxacin by Checkerboard assay (reference value: 0.128); type: functional
Escherichia coli [26] = assay: Induction of membrane depolarization Escherichia coli ATCC 25922 assessed as increase in red fluorescence intensity at 0.5 to 8 times of MIC concentration measured after 6 hrs by […] assay; type: functional, organism-based
Acinetobacter baumannii [27] = assay: Reduction in metabolic activity of Acinetobacter baumannii assessed as decrease in fluorescence intensity at 1/4 to 8 times of MIC measured after 6 hrs by resazurin sodium salt assay; type: functional, organism-based
Acinetobacter baumannii [28] = assay: Reduction in metabolic activity of Acinetobacter baumannii assessed as biomass of the fluorescent pink change to non-fluorescent blue; type: functional, organism-based
Acinetobacter baumannii [29] = assay: Induction of intracellular ROS accumulation in Acinetobacter baumannii assessed as fluorescence intensity at 1/4 to 2 times of MIC by DCFH-DA staining based assay; type: functional, organism-based
Escherichia coli [30] = assay: Induction of intracellular ROS accumulation in Escherichia coli ATCC 25922 assessed as fluorescence intensity at 1/4 to 2 times of MIC by DCFH-DA staining based assay; type: functional, organism-based
Calf thymus DNA [31] = assay: Binding affinity to calf thymus DNA assessed as compound/DNA binary complex by measuring increase in absorption at 260 nm by UV-vis/fluorescence spectroscopy; type: nucleic-acid assay; conditions: Bos taurus
Calf thymus DNA [32] = assay: Binding affinity to calf thymus DNA assessed as decrease in fluorescence intensity at 530 nm by Acridine Orange based fluorescence spectroscopy; type: nucleic-acid assay; conditions: Bos taurus

CCCCc1nc(Cl)c(C2NC(=O)NC(CN3CCN(C(=O)/C(=N/OC)c4csc(N)n4)CC3)=C2C(=O)OCC)[nH]1 (stereo not drawn)
MIC (Staphylococcus aureus): 7 µM (≈ 4.26 µg/mL) | MIC (Escherichia coli [1]): 7 µM (≈ 4.26 µg/mL) | hemolysis at 6 h, 128 x MIC [2]: 0.8% | viability at 24 h [3]: > 95% | Activity (Acinetobacter baumannii [4]): 18.6% | Activity (Escherichia coli [5]): 37.7% | OD (Acinetobacter baumannii [6]): 0.13 | OD (Escherichia coli [7]): 0.061 | Activity (Escherichia coli [8]): 64.4% | Activity (Acinetobacter baumannii [9]): Active | FIC (Acinetobacter baumannii [10]): 0.5 | OD (Acinetobacter baumannii [11]): 0.118 | OD (Acinetobacter baumannii [12]): 0.051 | OD (Acinetobacter baumannii [13]): 0.128 | OD (Acinetobacter baumannii [14]): 0.107 | OD (Acinetobacter baumannii [15]): 0.05 | OD (Acinetobacter baumannii [16]): 0.051 | OD (Acinetobacter baumannii [17]): 0.116 | OD (Acinetobacter baumannii [18]): 0.106 | OD (Acinetobacter baumannii [19]): 0.053 | OD (Acinetobacter baumannii [20]): 0.116 | OD (Escherichia coli [21]): 0.051 | OD (Escherichia coli [22]): 0.056 | OD (Escherichia coli [23]): 0.118 | OD (Escherichia coli [24]): 0.127 | OD (Escherichia coli [25]): 0.112 | Activity (Escherichia coli [26]): Active | Activity (Acinetobacter baumannii [27]): Active | Activity (Acinetobacter baumannii [28]): Active | Activity (Acinetobacter baumannii [29]): Active | Activity (Escherichia coli [30]): Active | Activity (Calf thymus DNA [31]): Active | Activity (Calf thymus DNA [32]): Active
